According to patent US20230159509A1 (Amathus Therapeutics, Inc., priority 2020, published 2023):

Target: T1, TRAP1 enzyme (Homo sapiens, UniProt Q12931)
T1 construct: 150 nM Trap1 enzyme was incubated with various concentrations of the test compound
T1 sequence (Q12931 60-704): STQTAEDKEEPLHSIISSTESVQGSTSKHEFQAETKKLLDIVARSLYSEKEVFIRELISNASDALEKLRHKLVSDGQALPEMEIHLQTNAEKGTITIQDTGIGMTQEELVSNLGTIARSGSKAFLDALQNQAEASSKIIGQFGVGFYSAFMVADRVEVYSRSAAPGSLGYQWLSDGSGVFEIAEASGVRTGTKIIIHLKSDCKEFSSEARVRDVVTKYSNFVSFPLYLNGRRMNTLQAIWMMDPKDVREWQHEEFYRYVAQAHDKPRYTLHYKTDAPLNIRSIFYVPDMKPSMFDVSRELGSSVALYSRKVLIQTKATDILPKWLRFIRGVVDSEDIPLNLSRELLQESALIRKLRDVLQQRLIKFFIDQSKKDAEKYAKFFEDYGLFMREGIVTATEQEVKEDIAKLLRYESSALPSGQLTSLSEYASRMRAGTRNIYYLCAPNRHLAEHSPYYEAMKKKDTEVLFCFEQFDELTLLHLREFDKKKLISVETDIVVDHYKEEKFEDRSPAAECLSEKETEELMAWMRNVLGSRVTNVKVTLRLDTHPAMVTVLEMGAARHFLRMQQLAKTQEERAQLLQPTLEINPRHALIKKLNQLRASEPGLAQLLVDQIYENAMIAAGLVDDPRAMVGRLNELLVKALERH
Experiment: ADP Glo assay of TRAP1 ATPase activity
Assay type: biochemical
Details: 1 h; compound concentration 50 μM; read-out: ADP-Glo Percent Activation at 50 μM
Outline: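 Compound (0.79–100 μM) was preincubated 30 min at 37° C with 150 nM TRAP1 in 25 mM Pipes pH 7.5, 40 mM KCl, 0.05 mM MgCl2. Reaction started with 20 μM ATP, 60 min at 37° C. ADP measured by luminescence against a standard curve; activation fitted sigmoidally for EC50 and Emax.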

| Compound | activation at 50 µM [%] |
| --- | --- |
| COc1ncc(NC(=O)c2cnn(CC(F)(F)F)c2)cc1S(=O)(=O)Nc1c(C)cccc1C [compound 2684] | 120 to 150 |
| COc1ncc(NC(=O)c2nsnc2Cl)cc1S(=O)(=O)Nc1c(C)cccc1C [compound 2687] | 151 to 180 |
| COc1ncc(NC(=O)c2ccc(NC(C)=O)c(C)c2)cc1S(=O)(=O)Nc1c(C)cccc1C [compound 2688] | 151 to 180 |
| COc1ncc(NC(=O)c2cc(C(C)C)on2)cc1S(=O)(=O)Nc1c(C)cccc1C [compound 2689] | 181 to 352 |
| CCc1cc(C(=O)Nc2cnc(OC)c(S(=O)(=O)Nc3c(C)cccc3C)c2)no1 [compound 2690] | 151 to 180 |
| CCn1nc(C(=O)Nc2cnc(OC)c(S(=O)(=O)Nc3c(C)cccc3C)c2)cc1C [compound 2691] | 181 to 352 |
| COc1ncc(NC(=O)c2nc(C)oc2C)cc1S(=O)(=O)Nc1c(C)cccc1C [compound 2692] | 120 to 150 |
| COc1ncc(NC(=O)c2onc3c2CCCC3)cc1S(=O)(=O)Nc1c(C)cccc1C [compound 2693] | 120 to 150 |
| COc1ncc(NC(=O)c2sccc2C(F)(F)F)cc1S(=O)(=O)Nc1c(C)cccc1C [compound 2694] | 181 to 352 |
| COc1ncc(NC(=O)c2cc(C(F)(F)F)n[nH]2)cc1S(=O)(=O)Nc1c(C)cccc1C [compound 2695] | 151 to 180 |
| COc1ncc(NC(=O)c2cccc(NC(C)=O)c2)cc1S(=O)(=O)Nc1c(C)cccc1C [compound 2696] | 181 to 352 |
| COc1ncc(NC(=O)c2coc(C(C)C)n2)cc1S(=O)(=O)Nc1c(C)cccc1C [compound 2697] | 181 to 352 |
| COc1ncc(NC(=O)c2ccc(NC(=O)C(C)(C)C)cc2)cc1S(=O)(=O)Nc1c(C)cccc1C [compound 2699] | 151 to 180 |
| COc1ncc(NC(=O)c2cnn(C3CCCCC3)c2)cc1S(=O)(=O)Nc1c(C)cccc1C [compound 2700] | 181 to 352 |
| COc1ncc(NC(=O)c2n[nH]c3c2CCC3)cc1S(=O)(=O)Nc1c(C)cccc1C [compound 2701] | 181 to 352 |
| COc1ncc(NC(=O)c2csnc2C)cc1S(=O)(=O)Nc1c(C)cccc1C [compound 2703] | 120 to 150 |
| COc1ncc(NC(=O)c2conc2C)cc1S(=O)(=O)Nc1c(C)cccc1C [compound 2706] | 120 to 150 |
| COc1ncc(NC(=O)c2oncc2C)cc1S(=O)(=O)Nc1c(C)cccc1C [compound 2708] | 120 to 150 |
| COc1ncc(NC(=O)c2ccn[nH]2)cc1S(=O)(=O)Nc1c(C)cccc1C [compound 2709] | 120 to 150 |
| COc1ncc(NC(=O)c2nn(C)c(C)c2Cl)cc1S(=O)(=O)Nc1c(C)cccc1C [compound 2710] | 181 to 352 |
| CCc1oncc1C(=O)Nc1cnc(OC)c(S(=O)(=O)Nc2c(C)cccc2C)c1 [compound 2711] | 120 to 150 |
| COc1ncc(NC(=O)c2ncco2)cc1S(=O)(=O)Nc1c(C)cccc1C [compound 2712] | 120 to 150 |

| Compound | activation at 50 µM [%] |
| --- | --- |
| COc1ncc(NC(=O)c2cnn(C)c2C(F)F)cc1S(=O)(=O)Nc1c(C)cccc1C [compound 2713] | 181 to 352 |
| CCCc1nnsc1C(=O)Nc1cnc(OC)c(S(=O)(=O)Nc2c(C)cccc2C)c1 [compound 2714] | 181 to 352 |
| COc1ncc(NC(=O)c2cccc(CN3CCN(C)CC3)c2)cc1S(=O)(=O)Nc1c(C)cccc1C [compound 2715] | 120 to 150 |
| COc1ncc(NC(=O)c2cc(C)sn2)cc1S(=O)(=O)Nc1c(C)cccc1C [compound 2716] | 181 to 352 |
| COc1ncc(NC(=O)c2ncoc2C)cc1S(=O)(=O)Nc1c(C)cccc1C [compound 2718] | 151 to 180 |
| COc1ncc(NC(=O)c2cccc3c2C(=O)NC3)cc1S(=O)(=O)Nc1c(C)cccc1C [compound 2719] | 151 to 180 |
| COc1ncc(NC(=O)c2snnc2C2CC2)cc1S(=O)(=O)Nc1c(C)cccc1C [compound 2720] | 181 to 352 |
| COc1ncc(NC(=O)c2cn[nH]c2C)cc1S(=O)(=O)Nc1c(C)cccc1C [compound 2724] | 120 to 150 |
| COc1ncc(NC(=O)c2noc3c2CCCC3)cc1S(=O)(=O)Nc1c(C)cccc1C [compound 2725] | 181 to 352 |
| CCCc1onc(C)c1C(=O)Nc1cnc(OC)c(S(=O)(=O)Nc2c(C)cccc2C)c1 [compound 2726] | 181 to 352 |
| COc1ncc(NC(=O)c2ccc3c(c2)NC(=O)C3)cc1S(=O)(=O)Nc1c(C)cccc1C [compound 2727] | 181 to 352 |
| COc1ncc(NC(=O)c2ccnc(N3CCCCC3)c2)cc1S(=O)(=O)Nc1c(C)cccc1C [compound 2729] | 181 to 352 |
| COc1ncc(NC(=O)c2cc(Cl)n[nH]2)cc1S(=O)(=O)Nc1c(C)cccc1C [compound 2730] | 181 to 352 |
| COc1ncc(NC(=O)c2[nH]cnc2C)cc1S(=O)(=O)Nc1c(C)cccc1C [compound 2731] | 120 to 150 |
| COc1ncc(NC(=O)c2cc3[nH]c(=O)[nH]c(=O)n3c2)cc1S(=O)(=O)Nc1c(C)cccc1C [compound 2732] | 151 to 180 |
| COc1ncc(NC(=O)c2ocnc2C)cc1S(=O)(=O)Nc1c(C)cccc1C [compound 2733] | 151 to 180 |
| COc1ncc(NC(=O)c2nnsc2C(C)C)cc1S(=O)(=O)Nc1c(C)cccc1C [compound 2734] | 181 to 352 |
| COc1ncc(NC(=O)c2cc[nH]c3nccc2-3)cc1S(=O)(=O)Nc1c(C)cccc1C [compound 2735] | 181 to 352 |
| COc1ncc(NC(=O)c2n[nH]c3c2CCCC3)cc1S(=O)(=O)Nc1c(C)cccc1C [compound 2736] | 181 to 352 |
| COc1ncc(NC(=O)c2cnc(N(C)C)nc2)cc1S(=O)(=O)Nc1c(C)cccc1C [compound 2737] | 120 to 150 |
| COc1ncc(NC(=O)c2cc(C)on2)cc1S(=O)(=O)Nc1c(C)cccc1C [compound 2738] | 151 to 180 |
| COc1ncc(NC(=O)c2cnn3c2SCC3)cc1S(=O)(=O)Nc1c(C)cccc1C [compound 2740] | 181 to 352 |

| Compound | activation at 50 µM [%] |
| --- | --- |
| COc1ncc(NC(=O)c2ccon2)cc1S(=O)(=O)Nc1c(C)cccc1C [compound 2741] | 120 to 150 |
| COc1ncc(NC(=O)c2ccc(N3CCN(C)CC3)c(F)c2)cc1S(=O)(=O)Nc1c(C)cccc1C [compound 2742] | 181 to 352 |
| COc1ncc(NC(=O)c2coc(C3CCCCC3)n2)cc1S(=O)(=O)Nc1c(C)cccc1C [compound 2743] | 151 to 180 |
| COc1ncc(NC(=O)c2ccnc(N3CCOCC3)c2)cc1S(=O)(=O)Nc1c(C)cccc1C [compound 2744] | 181 to 352 |
| COc1ncc(NC(=O)c2ccc(C3CCN(C)CC3)cc2)cc1S(=O)(=O)Nc1c(C)cccc1C [compound 2745] | 151 to 180 |
| COc1ncc(NC(=O)c2ccc(NC(C)=O)cc2)cc1S(=O)(=O)Nc1c(C)cccc1C [compound 2746] | 181 to 352 |
| COc1ncc(NC(=O)c2cc(OC)n(C)n2)cc1S(=O)(=O)Nc1c(C)cccc1C [compound 2747] | 151 to 180 |
| COc1ncc(NC(=O)c2cc(C)[nH]n2)cc1S(=O)(=O)Nc1c(C)cccc1C [compound 2749] | 151 to 180 |
| CCn1cc(C(=O)Nc2cnc(OC)c(S(=O)(=O)Nc3c(C)cccc3C)c2)cn1 [compound 2750] | 120 to 150 |
| COc1ncc(NC(=O)c2ccc(CN3CCCC3)cc2)cc1S(=O)(=O)Nc1c(C)cccc1C [compound 2751] | 120 to 150 |
| CCc1noc(C)c1C(=O)Nc1cnc(OC)c(S(=O)(=O)Nc2c(C)cccc2C)c1 [compound 2752] | 120 to 150 |
| COc1ncc(NC(=O)c2ncc[nH]2)cc1S(=O)(=O)Nc1c(C)cccc1C [compound 2753] | 120 to 150 |
| COc1ncc(NC(=O)c2cc(C)no2)cc1S(=O)(=O)Nc1c(C)cccc1C [compound 2754] | 120 to 150 |
| COc1ncc(NC(=O)c2cn(C(C)(C)C)nn2)cc1S(=O)(=O)Nc1c(C)cccc1C [compound 2755] | 151 to 180 |
| COc1ncc(NC(=O)c2n[nH]cc2C)cc1S(=O)(=O)Nc1c(C)cccc1C [compound 2756] | 151 to 180 |
| COc1ncc(NC(=O)c2nnsc2C2CC2)cc1S(=O)(=O)Nc1c(C)cccc1C [compound 2758] | 151 to 180 |
| COc1ncc(NC(=O)c2cccnc2N2CCOCC2)cc1S(=O)(=O)Nc1c(C)cccc1C [compound 2759] | 181 to 352 |
| COc1ncc(NC(=O)c2ccc(NS(C)(=O)=O)cc2)cc1S(=O)(=O)Nc1c(C)cccc1C [compound 2761] | 181 to 352 |
| COc1ncc(NC(=O)c2cnn(C)c2OC)cc1S(=O)(=O)Nc1c(C)cccc1C [compound 2762] | 120 to 150 |
| COc1ncc(NC(=O)c2ccc(N3CCN(C)CC3)c(Cl)c2)cc1S(=O)(=O)Nc1c(C)cccc1C [compound 2764] | 181 to 352 |
| COc1ncc(NC(=O)c2ccc(CO)cc2)cc1S(=O)(=O)Nc1c(C)cccc1C [compound 2766] | 151 to 180 |
